# Legend:
# porcine pepsin = biological target: T1, porcine pepsin (Sus scrofa, UniProt P00791); assay: competitive binding assay (fluorescence polarization, pepstatin-Alexa647 probe); conditions: 100 nM pepstatin-Alexa647, 0.03U/ul pepsin, 37.5% DMSO; FIG. 3A
# T1 construct: purchased Worthington (Lakewood, NJ)
# Description: Fluorescent polarization assays were developed to test compound binding and inhibition of pepsin (FIG. 1). A competitive binding assay was developed using pepstatin, a known inhibitor of pepsin with subnanomolar affinity^91 (Roberts 2003). This binding assay measures the relative binding affinity but not the enzymatic inhibition of compounds. Thus, a separate peptic activity assay was developed, which uses fluorescently labelled alpha casein as substrate. Both assays are based on the principle of fluorescence polarization (FP), which holds that as the molecular size of a fluorescent species is altered through dissociation/breakdown or association/binding events, the degree of depolarization of plane polarized light changes accordingly, directly affecting the FP value.^92 (Lea 2011). In the assays used herein, millipolarization (mP) decreases as casein-Alexa647 is degraded by pepsin and increases with binding of pepsin to pepstatin-Alexa647.
# Assays were performed in 20 ul volumes in 384-well black optical plates (Nunc, Roskilde, DK). Pepstatin dose response curves were used to optimize pepsin/inhibitor concentrations and assay incubation times. Dose response was performed using 0.3-1000 uM unlabeled pepstatin with 100-500 nM pepstatin-Alexa647 probe, 0.003-3U/μl porcine pepsin (Worthington, Lakewood, NJ), and 10-37% dimethyl sulfoxide (HIV protease inhibitor diluent) in 0.1M HCl, pH1+0.01% Tween-20. Reagents were combined (with pepsin added last) in 50% of the final reaction volume for mixing and immediately read on a BioTek Cytation (BioTek Instruments, Winooski, VT) with far-red FP filter cube at excitation/emission of […] for five minutes, in at least triplicate. Averaged polarization values of replicate reads were plotted against probe or labeled pepstatin concentrations in GraphPad Prism 8 (La Jolla, CA). Reagent concentrations yielding greatest dynamic range were selected for the assay. The peptic activity assay was optimized similarly using casein-Alexa647 probe in 0.1M HCl, pH1+0.01% Tween-20. Reagents were combined (adding pepsin last) and read immediately at minimal intervals (<2 minutes apart) over 30 minutes. The assay was performed in triplicate and mean polarization value was plotted over time.
# HIV protease inhibitors were dissolved in DMSO. Amprenavir, ritonavir, lopinavir, saquinavir mesylate, nelfinavir mesylate hydrate, darunavir ethanolate, indinavir sulfate salt hydrate were obtained from Sigma-Aldrich. […] Half-maximal inhibitory concentration (IC50) were calculated from kinetic traces analyzed using an online tool (icekat.herokuapp.com/icekat, O1p 2019^95). Percent bound and percent activity were calculated by normalization to the measured polarization value without HIV protease inhibitor compound. […]
# solubility = type: physicochemical; conditions: co-crystallization solution
# Procedure: Lyophilized porcine pepsin A (Worthington Biochemical Corporation) was dissolved in water at 200 mg/mL. All ligand stock solutions, except for saquinavir mesylate, were prepared as saturated solutions in DMSO in order to dissolve the maximal amount of ligand. The solutions were centrifuged and an appropriate volume of the supernatant was added to the pepsin solution so that final mixture contained 1.6% of the ligand stock by volume. The mixtures were incubated at room temperature for 1 h, centrifuged for 10 min at 31,000 rcf, and the supernatant was used for crystallization experiments. […] In order to maximize the solubility of saquinavir in the crystallization solution, we tested solutions from the CryoSol screen (Molecular Dimensions) (PMID 28626721). Mixture SM2 consisting of 37.5% v/v dioxane, 25% v/v DMSO, 12.5% v/v ethylene glycol, 12.5% v/v 1,2-propanediol, and 12.5% v/v glycerol allowed us to increase the amount of ligand solution in the co-crystallization mixture without damaging the protein. The saturated solution of saquinavir in SM2 was treated in the same manner as solutions of other ligands except that its amount in the solution with pepsin was increased to 5% by volume.
# T1 sequence (P00791 60-385): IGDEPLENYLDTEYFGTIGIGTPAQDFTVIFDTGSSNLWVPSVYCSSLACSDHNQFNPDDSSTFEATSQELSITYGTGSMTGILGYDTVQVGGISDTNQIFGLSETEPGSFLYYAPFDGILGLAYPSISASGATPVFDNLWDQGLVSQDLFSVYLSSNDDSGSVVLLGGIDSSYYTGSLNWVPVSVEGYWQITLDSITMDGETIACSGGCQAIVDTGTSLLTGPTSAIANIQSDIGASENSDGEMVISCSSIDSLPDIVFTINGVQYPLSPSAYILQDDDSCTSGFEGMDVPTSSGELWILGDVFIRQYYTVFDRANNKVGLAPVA
competitive binding to pepsin (porcine pepsin),solubility (solubility),Compound
competitive binding to pepsin,,"CC(C)CN(C[C@@H](O)[C@H](Cc1ccccc1)NC(=O)O[C@H]1CCOC1)S(=O)(=O)c1ccc(N)cc1 [amprenavir, [(3S)-oxolan-3-yl] N-[(2S,3R)-4-[(4-aminophenyl)sulfonyl-(2-methylpropyl)amino]-3-hydroxy-1-phenylbutan-2-yl]carbamate]"
competitive binding to pepsin,,"CC(C)c1nc(CN(C)C(=O)N[C@H](C(=O)N[C@@H](Cc2ccccc2)C[C@H](O)[C@H](Cc2ccccc2)NC(=O)OCc2cncs2)C(C)C)cs1 [ritonavir, 1,3-thiazol-5-ylmethyl N-[(2S,3 S,5S)-3-hydroxy-5-[[(2S)-3-methyl-2-[[methyl-[(2-propan-2-yl-1,3-thiazol-4-yl)methyl]carbamoyl]amino]butanoyl]amino]-1,6-diphenylhexan-2-yl]carbamate]"
competitive binding to pepsin,low solubility,"CC(C)(C)NC(=O)[C@@H]1C[C@@H]2CCCC[C@@H]2CN1C[C@@H](O)[C@H](Cc1ccccc1)NC(=O)[C@H](CC(N)=O)NC(=O)c1ccc2ccccc2n1 [saquinavir, (2S)—N-[(2S,3R)-4-[(3 S,4aS,8aS)-3-(tert-butylcarbamoyl)-3,4,4a,5,6,7,8,8a-octahydro-1H-isoquinolin-2-yl]-3-hydroxy-1-phenylbutan-2-yl]-2-(quinoline-2-carbonylamino)butanediamide]"

Compound,competitive binding to pepsin (porcine pepsin),solubility (solubility)
"CC(C)CN(C[C@@H](O)[C@H](Cc1ccccc1)NC(=O)O[C@H]1CO[C@H]2OCC[C@H]21)S(=O)(=O)c1ccc(N)cc1 [darunavir, [(3a S,4R,6aR)-2,3,3a,4,5,6a-hexahydrofuro[2,3-b]furan-4-yl] N-[(2S,3R)-4-[(4-aminophenyl)sulfonyl-(2-methylpropyl)amino]-3-hydroxy-1-phenylbutan-2-yl]carbamate]",competitive binding to pepsin,
